Experiment [1] deals with RKO human colon adenocarcinoma cells (RKO p27 subclone, uninduced). Kind of experiment: Alamar Blue cell viability assay, anti-proliferative/cytotoxic activity, proliferating RKO p27 cells (uninduced). The following applies: RKOp27, absence of Ponasterone A, 72 hours incubation. The class given is cell-based. As for the experimental part:
The anti-proliferative/cytotoxic activity of the compounds described herein can be tested on subclones of RKO human colon adenocarcinoma cells (Schmidt et al., Oncogene 19, 2423-2429; 2000) using the Alamar Blue cell viability assay (described in O'Brien et al. Eur J Biochem 267, 5421-5426, 2000). The compounds are dissolved as 10 mM solutions in DMSO and subsequently diluted in semi-logarithmic steps. DMSO dilutions are further diluted 1:100 into Dulbecco's modified Eagle's medium (DMEM) containing 10% fetal calf serum to a final concentration twice as much as the final concentration in the test. RKO subclones are seeded into 96 well flat bottom plates at a density of 4000 cells per well in a volume of 50 μl per well. 24 hours after seeding the 50 μl each of the compound dilutions in DMEM medium are added into each well of the 96 well plate. Each compound dilution is tested as quadruplicates. Wells containing untreated control cells are filled with 50 μl DMEM medium containing 1% DMSO. The cells are then incubated with the substances for 72 hours at 37° C. in a humidified atmosphere containing 5% carbon dioxide. To determine the viability of the cells, 10 μl of an Alamar Blue solution (Biosource) are added and the fluorescence is measured at an extinction of 544 nm and an emission of 590 nm. For the calculation of the cell viability the emission value from untreated cells is set as 100% viability and the emission rates of treated cells are set in relation to the values of untreated cells. Viabilities are expressed as % values.
The corresponding IC50 values of the compounds for anti-proliferative/cytotoxic activity are determined from the concentration-effect curves.
(§1) Representative IC50 values for anti-proliferation/cytotoxicity determined in the aforementioned assays follow from the following table A, in which the numbers of the compounds correspond to the numbers of the examples.
Background: Alamar Blue is a resazurin reagent that responds to reducing activity.

The test system of experiment [2] is RKO colon adenocarcinoma cells (RKOp27, induced). In words: Alamar Blue cell viability assay, cell cycle specific mode of action, RKO p27 cells arrested by Ponasterone A induced p27Kip1. The class given is cell-based. The following applies: Homo sapiens, cells arrested by ectopic p27Kip1 induced with 10 μM Ponasterone A, 72 hours incubation. As to the method: To determine the cell cycle specific mode of action, subclones of RKO colon adenocarcinoma cells (RKOp27 as described by Schmidt et al. in Oncogene 19, 2423-2429; 2000) are seeded into 96 well flat bottom plates at a density of 16000 cells per well in a volume of 50 μl per well in DMEM growth medium with 10% FCS containing 10 μM Ponasterone A. 24 hours after seeding the 50 μl each of the compound dilutions in DMEM medium are added into each well of the 96-well plate. Each compound dilution is tested as quadruplicates. Wells containing untreated control cells are filled with 50 μl DMEM medium containing 1% DMSO. The cells are then incubated with the substances for 72 hours at 37° C. in a humidified atmosphere containing 5% carbon dioxide. To determine the viability of the cells, 10 μl of an Alamar Blue solution (Biosource) are added and the fluorescence is measured at an extinction of 544 nm and an emission of 590 nm. For the calculation of the cell viability the emission value from untreated cells is set as 100% viability and the emission rates of treated cells are set in relation to the values of untreated cells. Viabilities are expressed as % values. Viability is compared of proliferating cells grown in the absence of the inducer Ponasterone A, versus viability of cells arrested by the expression of ectopic p27Kip1 induced by Ponasterone A.
as §1

For orientation: IC50 means the concentration that inhibits the measured activity by half. A low value points to greater potency.

SMILES strings stand for the structures.

Regarding `COC(=O)c1cccc([C@@H]2c3[nH]c4ccccc4c3C[C@H]3C(=O)N(C)C(=S)N23)c1` (racemic) [Compound 4, 3-((3aSR, 10RS)-2-Methyl-3-oxo-1-thioxo-2,3,3a,4,9,10-hexahydro-1H-2,9,10a-triaza-cyclopenta[b]fluoren-10-yl)-benzoic acid methyl ester], the values for the IC50 in experiment [1] and in experiment [2] were at most 2 µM and over 100 µM, respectively.
Take `CN1C(=O)[C@@H]2Cc3c([nH]c4ccccc34)[C@@H](c3cccc(OC(F)(F)F)c3)N2C1=S` [Compound 1, (3aS,10R)-2-Methyl-1-thioxo-10-(3-trifluoromethoxy-phenyl)-1,2,3a,4,9,10-hexahydro-2,9,10a-triaza-cyclopenta[b]fluoren-3-one]: the IC50 in experiment [1] is at most 2 µM; in experiment [2], over 100 µM.
On to `COC(=O)c1cccc([C@@H]2c3[nH]c4ccccc4c3C[C@H]3C(=O)N(C)C(=S)N23)c1` [Compound 5, 3-((3aS,10R)-2-Methyl-3-oxo-1-thioxo-2,3,3a,4,9,10-hexahydro-1H-2,9,10a-triaza-cyclopenta[b]fluoren-10-yl)-benzoic acid methyl ester], for which the figures for the IC50 in experiment [1] and in experiment [2] were at most 2 µM and over 100 µM, respectively.
As to `COC(=O)c1cc(Cl)cc([C@@H]2c3[nH]c4ccccc4c3C[C@H]3C(=O)N(C)C(=S)N23)c1` [Compound 6, 3-Chloro-5-((3aS,10R)-2-methyl-3-oxo-1-thioxo-2,3,3a,4,9,10-hexahydro-1H-2,9,10a-triaza-cyclopenta[b]fluoren-10-yl)-benzoic acid methyl ester], the figures for the IC50 in experiment [1] and in experiment [2] were at most 2 µM and over 100 µM, respectively.
In the same order, the values of `COC(=O)c1ccc(OC)c([C@@H]2c3[nH]c4ccccc4c3C[C@H]3C(=O)N(C)C(=S)N23)c1` [Compound 7, 4-Methoxy-3-((3aS,10R)-2-methyl-3-oxo-1-thioxo-2,3,3a,4,9,10-hexahydro-1H-2,9,10a-triaza-cyclopenta[b]fluoren-10-yl)-benzoic acid methyl ester] are at most 2 µM and over 100 µM.

These data come from patent publication US20080114017A1, “Novel Indolopyridines, Benzofuranopyridines and Benzothienopyridines” (priority 2005, published 2008).
